Calls of active or inactive are those of the source. No cut-off for these calls is given here.
Tests used:
A-375 [1] = assay: Induction of apoptosis in human A375 cells assessed as number of apoptotic cells at 2 uM incubated for 48 hrs by annexin V-FITC/PI based flow cytometric analysis relative to control; format: functional
HCT-116 [2] = assay: Induction of apoptosis in human HCT116 cells assessed as number of apoptotic cells at 2 uM incubated for 48 hrs by annexin V-FITC/PI based flow cytometric analysis relative to control; format: functional
NCI-H460 [3] = assay: cells; format: functional; conditions: Homo sapiens, time 72 hrs, read-out: GI
NCI-H460 [4] = assay: cells; format: functional, cell-based; conditions: Homo sapiens, NCI-H460, 72 h
Description: Antiproliferative activity against human H460 cells assessed as inhibition of cell growth incubated for 72 hrs by CCK-8 assay

A-375 [5] = assay: cells; format: functional, cell-based; conditions: Homo sapiens, A-375, 72 h
Description: Antiproliferative activity against human A375 cells assessed as inhibition of cell growth incubated for 72 hrs by CCK-8 assay

[6] = target: Cyclin-dependent kinase 7/ cyclin H (Homo sapiens, UniProt P50613); assay: Inhibition of recombinant human full length CDK7/cyclin H1 expressed in Sf9 cells incubated for 10 mins by ADP-Glo reagent assay
Sequence of Cyclin-dependent kinase 7/ cyclin H (P51946 whole entry): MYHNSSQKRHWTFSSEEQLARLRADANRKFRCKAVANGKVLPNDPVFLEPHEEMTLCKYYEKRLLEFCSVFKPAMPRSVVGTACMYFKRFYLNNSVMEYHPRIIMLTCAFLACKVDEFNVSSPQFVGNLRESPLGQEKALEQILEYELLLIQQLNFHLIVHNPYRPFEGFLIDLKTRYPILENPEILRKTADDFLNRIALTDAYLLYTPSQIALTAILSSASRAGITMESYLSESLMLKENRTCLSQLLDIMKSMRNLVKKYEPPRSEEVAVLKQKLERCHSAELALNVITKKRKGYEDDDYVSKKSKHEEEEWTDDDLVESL
Sequence of Cyclin-dependent kinase 7/ cyclin H (P50613 whole entry): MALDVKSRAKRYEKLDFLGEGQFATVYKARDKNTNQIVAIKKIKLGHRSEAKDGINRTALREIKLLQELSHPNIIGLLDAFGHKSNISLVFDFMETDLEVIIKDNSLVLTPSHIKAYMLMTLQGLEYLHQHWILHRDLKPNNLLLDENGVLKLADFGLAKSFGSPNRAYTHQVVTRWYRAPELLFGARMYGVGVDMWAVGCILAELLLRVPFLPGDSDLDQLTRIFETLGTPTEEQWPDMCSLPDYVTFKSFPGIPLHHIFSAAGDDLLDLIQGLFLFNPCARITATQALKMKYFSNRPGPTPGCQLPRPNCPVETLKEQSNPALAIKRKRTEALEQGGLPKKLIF

HCT-116 [7] = assay: cells; format: functional; conditions: Homo sapiens, time 72 hrs, read-out: GI
[8] = Cytotoxicity against mouse NIH/3T3 cells incubated for 72 hrs by CCK-8 assay; format: cell-based; conditions: NIH3T3, 72 h
NCI-H460 [9] = assay: Antimigratory activity against human H460 cells assessed as inhibition of cell migration at 0.5 uM measured after 48 hrs by cell scratch assay; format: functional, cell-based
CDK6/cyclin D3 = CDK6/cyclin D3 (Homo sapiens, UniProt Q00534); assay: Inhibition of recombinant human full length CDK6/cyclin D3 incubated for 10 mins by ADP-Glo reagent assay; format: protein-complex assay
Sequence of CDK6/cyclin D3 (P30281 whole entry): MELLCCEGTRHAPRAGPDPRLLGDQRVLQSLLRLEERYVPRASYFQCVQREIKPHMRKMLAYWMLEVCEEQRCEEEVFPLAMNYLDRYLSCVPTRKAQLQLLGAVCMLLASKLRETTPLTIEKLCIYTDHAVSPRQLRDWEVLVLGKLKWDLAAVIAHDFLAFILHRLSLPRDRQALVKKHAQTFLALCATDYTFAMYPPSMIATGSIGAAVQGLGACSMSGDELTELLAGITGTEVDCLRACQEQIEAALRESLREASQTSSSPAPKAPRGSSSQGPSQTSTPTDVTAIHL
Sequence of CDK6/cyclin D3 (Q00534 whole entry): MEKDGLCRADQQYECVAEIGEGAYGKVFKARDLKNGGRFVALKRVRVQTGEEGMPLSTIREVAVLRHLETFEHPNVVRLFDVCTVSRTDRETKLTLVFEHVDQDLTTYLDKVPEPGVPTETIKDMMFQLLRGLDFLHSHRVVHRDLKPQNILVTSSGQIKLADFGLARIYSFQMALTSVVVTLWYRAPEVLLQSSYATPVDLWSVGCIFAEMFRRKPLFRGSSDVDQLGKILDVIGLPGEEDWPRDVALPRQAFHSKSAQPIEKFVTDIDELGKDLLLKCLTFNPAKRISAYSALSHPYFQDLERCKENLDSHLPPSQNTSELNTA

HCT-116 [10] = assay: cells; format: functional; conditions: Homo sapiens, time 72 hrs, read-out: GI; remark: listed apart in the source
SMMC-7721 = assay: cells; format: functional, cell-based; conditions: Homo sapiens, SMMC-7721, 72 h
Description: Antiproliferative activity against human SMMC7721 cells assessed as inhibition of cell growth incubated for 72 hrs by CCK-8 assay

HeLa = assay: cells; format: functional, cell-based; conditions: Homo sapiens, 72 h
Description: Antiproliferative activity against human Hela cells assessed as inhibition of cell growth incubated for 72 hrs by CCK-8 assay

[11] = target: Cyclin-dependent kinase 4/cyclin D1 (Homo sapiens, UniProt P11802); assay: Inhibition of recombinant human full length CDK4/cyclin D1 expressed in Sf9 cells incubated for 10 mins by ADP-Glo reagent assay
Sequence of Cyclin-dependent kinase 4/cyclin D1 (P11802 whole entry): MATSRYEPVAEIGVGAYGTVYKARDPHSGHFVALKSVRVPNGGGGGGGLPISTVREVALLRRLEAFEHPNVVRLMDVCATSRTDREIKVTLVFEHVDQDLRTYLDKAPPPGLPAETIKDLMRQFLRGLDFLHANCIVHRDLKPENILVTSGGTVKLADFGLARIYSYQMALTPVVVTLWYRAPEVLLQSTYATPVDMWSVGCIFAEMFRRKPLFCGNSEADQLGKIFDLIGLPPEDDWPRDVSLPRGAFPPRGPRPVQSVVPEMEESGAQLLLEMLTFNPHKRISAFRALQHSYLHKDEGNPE
Sequence of Cyclin-dependent kinase 4/cyclin D1 (P24385 whole entry, further chain): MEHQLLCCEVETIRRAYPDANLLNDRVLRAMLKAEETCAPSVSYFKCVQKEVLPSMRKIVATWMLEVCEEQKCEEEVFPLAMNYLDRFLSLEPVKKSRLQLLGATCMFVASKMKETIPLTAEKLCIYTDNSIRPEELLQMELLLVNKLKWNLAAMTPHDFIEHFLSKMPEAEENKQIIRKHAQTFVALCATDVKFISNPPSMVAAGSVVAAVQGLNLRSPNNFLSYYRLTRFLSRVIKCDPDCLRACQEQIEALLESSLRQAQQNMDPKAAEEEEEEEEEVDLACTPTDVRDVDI

HCT-116 [12] = assay: cells; format: functional, cell-based; conditions: Homo sapiens, HCT-116, 72 h
Description: Antiproliferative activity against human HCT116 cells assessed as inhibition of cell growth incubated for 72 hrs by CCK-8 assay

NCI-H460 [13] = assay: cells; format: functional; conditions: Homo sapiens, time 72 hrs, read-out: GI; remark: listed apart in the source
A-375 [14] = assay: Antimigratory activity against human A375 cells assessed as inhibition of cell migration at 0.25 uM measured after 48 hrs by cell scratch assay; format: functional, cell-based

O=C(Nc1ccc(F)cc1)c1n[nH]cc1NC(=O)c1c(F)cccc1F
Activity (A-375 [1]): 66.71%
Activity (HCT-116 [2]): 48%
inhibition of growth at 8 µM (NCI-H460 [3]): 59.1%
IC50 (NCI-H460 [4]): 9.46 µM
IC50 (A-375 [5]): 13.4 µM
IC50 [6]: > 1 µM
inhibition of growth at 8 µM (HCT-116 [7]): 74%
IC50 [8]: 7.85 µM
inhibition (NCI-H460 [9]): Active
IC50 (CDK6/cyclin D3): > 1 µM
inhibition of growth at 2 µM (HCT-116 [10]): 57.6%
IC50 (SMMC-7721): 23.2 µM
IC50 (HeLa): 8.23 µM
IC50 [11]: > 1 µM
IC50 (HCT-116 [12]): 1.96 µM
inhibition of growth at 2 µM (NCI-H460 [13]): 21.3%
inhibition (A-375 [14]): Active
